# The supplement of paper PMC10307832
# Legend:
# Experiment in all cases: relative viability (nuclei count vs DMSO), 5 days (fraction); higher = more cells survive
# CAL-12T = tested on: CAL-12T
# How it was run: (§1)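 Five library-drug doses in √10 steps were combined with a fixed anchor-drug dose, or a single drug was given alone, by pin tool to lung cancer cell lines in 1536-well plates the day after seeding. Nuclei were stained and counted after 5 days. Relative viability is the nuclei count in treated wells over that in vehicle wells, taken as the median of duplicate plates.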
# NCI-H1650 = tested on: NCI-H1650
# How it was run: as §1
# NCI-H727 = tested on: NCI-H727
# How it was run: as §1
# 201T = tested on: 201T
# How it was run: as §1
# NCI-H2087 = tested on: NCI-H2087
# How it was run: as §1
# HCC-827 = tested on: HCC-827
# How it was run: as §1
# NCI-H1395 = tested on: NCI-H1395
# How it was run: as §1
# LCLC-103H = tested on: LCLC-103H
# How it was run: as §1
# NCI-H647 = tested on: NCI-H647
# How it was run: as §1
# RERF-LC-KJ = tested on: RERF-LC-KJ
# How it was run: as §1
# LXF-289 = tested on: LXF-289
# How it was run: as §1
# NCI-H1437 = tested on: NCI-H1437
# How it was run: as §1
# NCI-H2228 = tested on: NCI-H2228
# How it was run: as §1
# NCI-H2405 = tested on: NCI-H2405
# How it was run: as §1
# BEN = tested on: BEN
# How it was run: as §1
# LCLC-97TM1 = tested on: LCLC-97TM1
# How it was run: as §1
# NCI-H322M = tested on: NCI-H322M
# How it was run: as §1
# SK-LU-1 = tested on: SK-LU-1
# How it was run: as §1
# NCI-H1793 = tested on: NCI-H1793
# How it was run: as §1
# NCI-H1944 = tested on: NCI-H1944
# How it was run: as §1
# NCI-H3122 = tested on: NCI-H3122
# How it was run: as §1
smiles,measurement,setting,value
Nc1ccn([C@@H]2O[C@H](CO)[C@@H](O)[C@@H]2O)c(=O)n1 [Cytarabine] + Cc1cc(Nc2cc(N3CCN(C)CC3)nc(Sc3ccc(NC(=O)C4CC4)cc3)n2)n[nH]1 [Tozasertib] (partner 0.1 µM),relative viability,CAL-12T; first compound 0.005 µM,0.249
same,relative viability,CAL-12T; first compound 0.01581 µM,0.323
same,relative viability,CAL-12T; first compound 0.05 µM,0.27
same,relative viability,CAL-12T; first compound 0.1581 µM,0.303
same,relative viability,CAL-12T; first compound 0.5 µM,0.2
same,relative viability,NCI-H1650; first compound 0.005 µM,0.294
same,relative viability,NCI-H1650; first compound 0.01581 µM,0.33
same,relative viability,NCI-H1650; first compound 0.05 µM,0.303
same,relative viability,NCI-H1650; first compound 0.1581 µM,0.26
same,relative viability,NCI-H1650; first compound 0.5 µM,0.213
same,relative viability,NCI-H727; first compound 0.005 µM,0.574
same,relative viability,NCI-H727; first compound 0.01581 µM,0.386
same,relative viability,NCI-H727; first compound 0.05 µM,0.476
same,relative viability,NCI-H727; first compound 0.1581 µM,0.4
same,relative viability,NCI-H727; first compound 0.5 µM,0.463
same,relative viability,201T; first compound 0.005 µM,0.886
same,relative viability,201T; first compound 0.01581 µM,0.944
same,relative viability,201T; first compound 0.05 µM,0.911
same,relative viability,201T; first compound 0.1581 µM,0.837
same,relative viability,201T; first compound 0.5 µM,0.706
same,relative viability,NCI-H2087; first compound 0.005 µM,0.254
same,relative viability,NCI-H2087; first compound 0.01581 µM,0.25
same,relative viability,NCI-H2087; first compound 0.05 µM,0.234
same,relative viability,NCI-H2087; first compound 0.1581 µM,0.195
same,relative viability,NCI-H2087; first compound 0.5 µM,0.174
same,relative viability,HCC-827; first compound 0.005 µM,0.32
same,relative viability,HCC-827; first compound 0.01581 µM,0.282
same,relative viability,HCC-827; first compound 0.05 µM,0.286
same,relative viability,HCC-827; first compound 0.1581 µM,0.187
same,relative viability,HCC-827; first compound 0.5 µM,0.172
same,relative viability,NCI-H1395; first compound 0.005 µM,0.703
same,relative viability,NCI-H1395; first compound 0.01581 µM,0.633
same,relative viability,NCI-H1395; first compound 0.05 µM,0.434
same,relative viability,NCI-H1395; first compound 0.1581 µM,0.447
same,relative viability,NCI-H1395; first compound 0.5 µM,0.388
same,relative viability,LCLC-103H; first compound 0.005 µM,0.568
same,relative viability,LCLC-103H; first compound 0.01581 µM,0.487
same,relative viability,LCLC-103H; first compound 0.05 µM,0.413
same,relative viability,LCLC-103H; first compound 0.1581 µM,0.436
same,relative viability,LCLC-103H; first compound 0.5 µM,0.373
same,relative viability,NCI-H647; first compound 0.005 µM,0.205
same,relative viability,NCI-H647; first compound 0.01581 µM,0.22
same,relative viability,NCI-H647; first compound 0.05 µM,0.0474
same,relative viability,NCI-H647; first compound 0.1581 µM,0.073
same,relative viability,NCI-H647; first compound 0.5 µM,0.0484
same,relative viability,RERF-LC-KJ; first compound 0.005 µM,0.385
same,relative viability,RERF-LC-KJ; first compound 0.01581 µM,0.512
same,relative viability,RERF-LC-KJ; first compound 0.05 µM,0.353
same,relative viability,RERF-LC-KJ; first compound 0.1581 µM,0.393
same,relative viability,RERF-LC-KJ; first compound 0.5 µM,0.266
same,relative viability,LXF-289; first compound 0.005 µM,0.244
same,relative viability,LXF-289; first compound 0.01581 µM,0.182
same,relative viability,LXF-289; first compound 0.05 µM,0.13
same,relative viability,LXF-289; first compound 0.1581 µM,0.0999
same,relative viability,LXF-289; first compound 0.5 µM,0.0753
same,relative viability,NCI-H1437; first compound 0.005 µM,0.295
same,relative viability,NCI-H1437; first compound 0.01581 µM,0.355
same,relative viability,NCI-H1437; first compound 0.05 µM,0.365
same,relative viability,NCI-H1437; first compound 0.1581 µM,0.251
same,relative viability,NCI-H1437; first compound 0.5 µM,0.175
same,relative viability,NCI-H2228; first compound 0.005 µM,0.144
same,relative viability,NCI-H2228; first compound 0.01581 µM,0.204
same,relative viability,NCI-H2228; first compound 0.05 µM,0.207
same,relative viability,NCI-H2228; first compound 0.1581 µM,0.0929
same,relative viability,NCI-H2228; first compound 0.5 µM,0.105
same,relative viability,NCI-H2405; first compound 0.005 µM,0.66
same,relative viability,NCI-H2405; first compound 0.01581 µM,0.712
same,relative viability,NCI-H2405; first compound 0.05 µM,0.56
same,relative viability,NCI-H2405; first compound 0.1581 µM,0.429
same,relative viability,NCI-H2405; first compound 0.5 µM,0.371
same,relative viability,BEN; first compound 0.005 µM,0.427
same,relative viability,BEN; first compound 0.01581 µM,0.519
same,relative viability,BEN; first compound 0.05 µM,0.569
same,relative viability,BEN; first compound 0.1581 µM,0.63
same,relative viability,BEN; first compound 0.5 µM,0.563
same,relative viability,LCLC-97TM1; first compound 0.005 µM,0.248
same,relative viability,LCLC-97TM1; first compound 0.01581 µM,0.247
same,relative viability,LCLC-97TM1; first compound 0.05 µM,0.235
same,relative viability,LCLC-97TM1; first compound 0.1581 µM,0.207
same,relative viability,LCLC-97TM1; first compound 0.5 µM,0.174
same,relative viability,NCI-H322M; first compound 0.005 µM,0.454
same,relative viability,NCI-H322M; first compound 0.01581 µM,0.416
same,relative viability,NCI-H322M; first compound 0.05 µM,0.432
same,relative viability,NCI-H322M; first compound 0.1581 µM,0.364
same,relative viability,NCI-H322M; first compound 0.5 µM,0.303
same,relative viability,SK-LU-1; first compound 0.005 µM,0.301
same,relative viability,SK-LU-1; first compound 0.01581 µM,0.325
same,relative viability,SK-LU-1; first compound 0.05 µM,0.279
same,relative viability,SK-LU-1; first compound 0.1581 µM,0.185
same,relative viability,SK-LU-1; first compound 0.5 µM,0.189
same,relative viability,NCI-H1793; first compound 0.005 µM,0.346
same,relative viability,NCI-H1793; first compound 0.01581 µM,0.32
same,relative viability,NCI-H1793; first compound 0.05 µM,0.333
same,relative viability,NCI-H1793; first compound 0.1581 µM,0.291
same,relative viability,NCI-H1793; first compound 0.5 µM,0.332
same,relative viability,NCI-H1944; first compound 0.005 µM,0.211
same,relative viability,NCI-H1944; first compound 0.01581 µM,0.195
same,relative viability,NCI-H1944; first compound 0.05 µM,0.184
same,relative viability,NCI-H1944; first compound 0.1581 µM,0.149
same,relative viability,NCI-H1944; first compound 0.5 µM,0.114
same,relative viability,NCI-H3122; first compound 0.005 µM,0.389
same,relative viability,NCI-H3122; first compound 0.01581 µM,0.407
same,relative viability,NCI-H3122; first compound 0.05 µM,0.299
same,relative viability,NCI-H3122; first compound 0.1581 µM,0.237
same,relative viability,NCI-H3122; first compound 0.5 µM,0.161
